Results published in the NIST ThermoML archive (doi:10.1016/j.fluid.2011.12.029).
Numbers after ± are expanded uncertainties.

Details: Liquid, Vibrating tube method

CCCCCCCC[n+]1cccc(C)c1.F[B-](F)(F)F [N-octyl-3-methylpyridinium tetrafluoroborate]
Details	mass density [kg/m3]
283.15 K, 100 kPa	1106.25 ± 1.1
283.15 K, 5000 kPa	1108.56 ± 1.1
283.15 K, 10000 kPa	1110.95 ± 1.1
283.15 K, 15000 kPa	1113.26 ± 1.1
283.15 K, 20000 kPa	1115.53 ± 1.2
283.15 K, 25000 kPa	1117.71 ± 1.2
283.15 K, 30000 kPa	1119.8 ± 1.2
283.15 K, 35000 kPa	1121.93 ± 1.3
283.15 K, 40000 kPa	1123.9 ± 1.3
283.15 K, 45000 kPa	1125.95 ± 1.3
283.15 K, 50000 kPa	1127.8 ± 1.4
283.15 K, 55000 kPa	1129.77 ± 1.4
283.15 K, 60000 kPa	1131.58 ± 1.4
283.15 K, 65000 kPa	1133.37 ± 1.5
288.15 K, 100 kPa	1102.88 ± 1.1
288.15 K, 5000 kPa	1105.22 ± 1.1
288.15 K, 10000 kPa	1107.61 ± 1.1
288.15 K, 15000 kPa	1109.98 ± 1.1
288.15 K, 20000 kPa	1112.32 ± 1.2
288.15 K, 25000 kPa	1114.52 ± 1.2
288.15 K, 30000 kPa	1116.64 ± 1.2
288.15 K, 35000 kPa	1118.71 ± 1.2
288.15 K, 40000 kPa	1120.76 ± 1.3
288.15 K, 45000 kPa	1122.74 ± 1.3
288.15 K, 50000 kPa	1124.72 ± 1.3
288.15 K, 55000 kPa	1126.63 ± 1.4
288.15 K, 60000 kPa	1128.51 ± 1.4
288.15 K, 65000 kPa	1130.3 ± 1.4
293.15 K, 100 kPa	1099.53 ± 1.1
293.15 K, 5000 kPa	1102.06 ± 1.1
293.15 K, 10000 kPa	1104.51 ± 1.1
293.15 K, 15000 kPa	1106.86 ± 1.1
293.15 K, 20000 kPa	1109.18 ± 1.1
293.15 K, 25000 kPa	1111.4 ± 1.2
293.15 K, 30000 kPa	1113.56 ± 1.2
293.15 K, 35000 kPa	1115.81 ± 1.2
293.15 K, 40000 kPa	1117.82 ± 1.3
293.15 K, 45000 kPa	1119.87 ± 1.3
293.15 K, 50000 kPa	1121.88 ± 1.3
293.15 K, 55000 kPa	1123.82 ± 1.4
293.15 K, 60000 kPa	1125.67 ± 1.4
293.15 K, 65000 kPa	1127.47 ± 1.4
298.15 K, 100 kPa	1096.08 ± 1
298.15 K, 5000 kPa	1098.54 ± 1.1
298.15 K, 10000 kPa	1101.04 ± 1.1
298.15 K, 15000 kPa	1103.47 ± 1.1
298.15 K, 20000 kPa	1105.84 ± 1.1
298.15 K, 25000 kPa	1108.07 ± 1.2
298.15 K, 30000 kPa	1110.33 ± 1.2
298.15 K, 35000 kPa	1112.49 ± 1.2
298.15 K, 40000 kPa	1114.56 ± 1.3
298.15 K, 45000 kPa	1116.65 ± 1.3
298.15 K, 50000 kPa	1118.65 ± 1.3
298.15 K, 55000 kPa	1120.63 ± 1.4
298.15 K, 60000 kPa	1122.5 ± 1.4
298.15 K, 65000 kPa	1124.52 ± 1.4
303.15 K, 100 kPa	1092.83 ± 1
303.15 K, 5000 kPa	1095.28 ± 1.1
303.15 K, 10000 kPa	1097.84 ± 1.1
303.15 K, 15000 kPa	1100.3 ± 1.1
303.15 K, 20000 kPa	1102.65 ± 1.1
303.15 K, 25000 kPa	1104.99 ± 1.2
303.15 K, 30000 kPa	1107.32 ± 1.2
303.15 K, 35000 kPa	1109.47 ± 1.2
303.15 K, 40000 kPa	1111.6 ± 1.2
303.15 K, 45000 kPa	1113.68 ± 1.3
303.15 K, 50000 kPa	1115.8 ± 1.3
303.15 K, 55000 kPa	1117.71 ± 1.3
303.15 K, 60000 kPa	1119.7 ± 1.4
303.15 K, 65000 kPa	1121.56 ± 1.4
308.15 K, 100 kPa	1089.26 ± 1
308.15 K, 5000 kPa	1091.74 ± 1.1
308.15 K, 10000 kPa	1094.35 ± 1.1
308.15 K, 15000 kPa	1096.91 ± 1.1
308.15 K, 20000 kPa	1099.29 ± 1.1
308.15 K, 25000 kPa	1101.65 ± 1.1
308.15 K, 30000 kPa	1103.95 ± 1.2
308.15 K, 35000 kPa	1106.18 ± 1.2
308.15 K, 40000 kPa	1108.37 ± 1.2
308.15 K, 45000 kPa	1110.56 ± 1.3
308.15 K, 50000 kPa	1112.6 ± 1.3
308.15 K, 55000 kPa	1114.63 ± 1.3
308.15 K, 60000 kPa	1116.66 ± 1.4
308.15 K, 65000 kPa	1118.6 ± 1.4
313.15 K, 100 kPa	1085.88 ± 1
313.15 K, 5000 kPa	1088.47 ± 1
313.15 K, 10000 kPa	1091.09 ± 1.1
313.15 K, 15000 kPa	1093.69 ± 1.1
313.15 K, 20000 kPa	1096.09 ± 1.1
313.15 K, 25000 kPa	1098.54 ± 1.1
313.15 K, 30000 kPa	1100.84 ± 1.2
313.15 K, 35000 kPa	1103.14 ± 1.2
313.15 K, 40000 kPa	1105.37 ± 1.2
313.15 K, 45000 kPa	1107.51 ± 1.2
313.15 K, 50000 kPa	1109.66 ± 1.3
313.15 K, 55000 kPa	1111.71 ± 1.3
313.15 K, 60000 kPa	1113.7 ± 1.3
313.15 K, 65000 kPa	1115.65 ± 1.4
318.15 K, 100 kPa	1082.49 ± 1
318.15 K, 5000 kPa	1085.16 ± 1
318.15 K, 10000 kPa	1087.86 ± 1.1
318.15 K, 15000 kPa	1090.4 ± 1.1
318.15 K, 20000 kPa	1092.87 ± 1.1
318.15 K, 25000 kPa	1095.34 ± 1.1
318.15 K, 30000 kPa	1097.71 ± 1.2
318.15 K, 35000 kPa	1100 ± 1.2
318.15 K, 40000 kPa	1102.23 ± 1.2
318.15 K, 45000 kPa	1104.4 ± 1.2
318.15 K, 50000 kPa	1106.52 ± 1.3
318.15 K, 55000 kPa	1108.63 ± 1.3
318.15 K, 60000 kPa	1110.64 ± 1.3
318.15 K, 65000 kPa	1112.69 ± 1.4
323.15 K, 100 kPa	1079.26 ± 1
323.15 K, 5000 kPa	1082.03 ± 1
323.15 K, 10000 kPa	1084.69 ± 1.1
323.15 K, 15000 kPa	1087.27 ± 1.1
323.15 K, 20000 kPa	1089.69 ± 1.1
323.15 K, 25000 kPa	1092.26 ± 1.1
323.15 K, 30000 kPa	1094.65 ± 1.1
323.15 K, 35000 kPa	1096.93 ± 1.2
323.15 K, 40000 kPa	1099.23 ± 1.2
323.15 K, 45000 kPa	1101.43 ± 1.2
323.15 K, 50000 kPa	1103.63 ± 1.3
323.15 K, 55000 kPa	1105.69 ± 1.3
323.15 K, 60000 kPa	1107.78 ± 1.3
323.15 K, 65000 kPa	1109.77 ± 1.4
328.15 K, 100 kPa	1075.89 ± 0.99
328.15 K, 5000 kPa	1078.67 ± 1
328.15 K, 10000 kPa	1081.32 ± 1
328.15 K, 15000 kPa	1083.91 ± 1.1
328.15 K, 20000 kPa	1086.53 ± 1.1
328.15 K, 25000 kPa	1089.05 ± 1.1
328.15 K, 30000 kPa	1091.41 ± 1.1
328.15 K, 35000 kPa	1093.82 ± 1.2
328.15 K, 40000 kPa	1096.15 ± 1.2
328.15 K, 45000 kPa	1098.38 ± 1.2
328.15 K, 50000 kPa	1100.54 ± 1.2
328.15 K, 55000 kPa	1102.61 ± 1.3
328.15 K, 60000 kPa	1104.75 ± 1.3
328.15 K, 65000 kPa	1106.82 ± 1.3
333.15 K, 100 kPa	1072.64 ± 0.99
333.15 K, 5000 kPa	1075.39 ± 1
333.15 K, 10000 kPa	1078.24 ± 1
333.15 K, 15000 kPa	1080.9 ± 1.1
333.15 K, 20000 kPa	1083.46 ± 1.1
333.15 K, 25000 kPa	1086.03 ± 1.1
333.15 K, 30000 kPa	1088.48 ± 1.1
333.15 K, 35000 kPa	1090.88 ± 1.1
333.15 K, 40000 kPa	1093.31 ± 1.2
333.15 K, 45000 kPa	1095.48 ± 1.2
333.15 K, 50000 kPa	1097.71 ± 1.2
333.15 K, 55000 kPa	1099.8 ± 1.3
333.15 K, 60000 kPa	1101.97 ± 1.3
333.15 K, 65000 kPa	1104.05 ± 1.3
